5 compounds from patent US20220144850A1, “INDOLO HEPTAMYL OXIME ANALOGUE AS PARP INHIBITOR” (Chia Tai Tianqing Pharmaceutical Group Co., Ltd., priority 2019, published 2022) can be followed below.

Structures are written as SMILES.

One data set concerns the target T1, PARP1 (Homo sapiens, UniProt P09874).
T1 construct: purchased TREVIGEN
The experiment in a line: PARP-1 enzymatic experiment (HT Universal Chemiluminescent PARP Assay kit). The format is biochemical. Conditions: chemiluminescence. On the procedure:
Experimental Example 1: PARP-1 Enzymatic Experiment
Experimental materials: test compounds; HT Universal Chemiluminescent PARP Assay kit (purchased from TREVIGEN); PBS (purchased from Wisent); Triton X-100 (purchased from Macklin); Envision multi-marker analyzer (PerkinElmer).
(I) Preparation of Reagents:
• 1. Washing solution: Triton X-100 was added to 1-fold PBS, and the final concentration of Triton X-100 was 0.1%. • 2. 1-fold PARP buffer: the 20-fold PARP buffer in the kit was subjected to 20-fold dilution with water to prepare a 1-fold PARP buffer. This buffer was used to prepare the compound, enzyme solution and substrate solution. • 3. 1-fold Strep-Diluent solution: the 10-fold Strep-diluent in the kit was subjected to 10-fold dilution with water to prepare a 1-fold Strep-diluent solution.
(II) Preparation of Test Compounds:
Test compounds were serially 5-fold diluted to the 8th concentration with a multichannel pipette, i.e. from 200 μM to 2.56 nM, with the DMSO concentration being 100%. 2 μL of each of the inhibitors at various concentration gradients was added to a compound intermediate plate, and 38 μL of the 1-fold PARP buffer was then added; the two were mixed well for use, and the DMSO concentration was 5%.
(III) Experimental Method:
• a) The 1-fold PARP buffer was added to a test plate at 50 μL per well and incubated at 25° C. for 30 min. • b) After the incubation was completed, the liquid in the test plate was discarded, and each of the compounds at various concentration gradients was pipetted from the compound intermediate plate and added into the test plate at 10 μL per well. A duplicate-well experiment was performed. • c) The test plate was added with the enzyme solution (0.5 IU) at 15 μL per well. The compound and enzyme were incubated together at 25° C. for 10 min. • d) After the incubation was completed, 25 μL of the 1-fold PARP Cocktail (comprising 2.5 μL of 10-fold PARP Cocktail, 2.5 μL of 10-fold Activated DNA and 20 μL of 1-fold PARP buffer) was added to each well of the test plate. The test plate was incubated at 25° C. for 1 h. The final concentration of the compound was 2 μM to 0.0256 nM, and the DMSO concentration was […]. • e) After the incubation was completed, the test plate was washed twice with 200 μL of washing solution per well and then washed twice with 200 μL of PBS per well. • f) Strep-HRP in the kit was subjected to 500-fold dilution with the 1-fold Strep-Diluent solution, added to the test plate at 50 μL per well, and then incubated at 25° C. for 1 h. • g) After the incubation was completed, the test plate was washed twice with 200 μL of washing solution per well and then washed twice with 200 μL of PBS per well.
PeroxyGlow A and B in the kit were mixed at ratio of 1:1, and the mixed solution was added to the test plate at 100 μL per well. Chemiluminescence was immediately read using a PerkinElmer Envision multi-marker analyzer with an integration time of 0.5 s.
Data analysis: the original data was converted to inhibition using the equation (sample−Min)/(Max−Min)×[…], and the IC50 value was then curve filled using four parameters (obtained from the “log(inhibitor) vs. response-variable slope” model in GraphPad Prism).

Data set [1] in a line: Plasma protein binding rate, CD-1 mouse plasma (equilibrium dialysis). Conditions: CD-1 mice plasma, dialysis 4 h at 37° C. The class given is in vitro ADME. On the procedure: Experimental Example 5: Study on Plasma Protein Binding Rate
The protein binding rates of the compounds disclosed herein in plasma of human, CD-1 mice and SD rats were determined. 796 μL of blank plasma was taken from human, CD-1 mice and SD rats, and added with 4 μL of test compound working solution (400. μM) or warfarin working solution (400 μM) to achieve a final concentration of 2 μM of both the test compound and the warfarin in the plasma sample. The samples were mixed well. The final concentration of organic phase DMSO was 0.5%; 50 μL of test compound and warfarin plasma sample was pipetted into a sample receiving plate (three parallels), and a corresponding volume of blank plasma or buffer was immediately added such that the final volume of each sample well was 100 μL. The volume ratio of plasma to dialysis buffer was 1:1, and 400 μL of stop solution was added to these samples, which were used as TO samples for determination of recovery rate and stability. The TO samples were stored at 2-8° C. for subsequent treatment with other dialyzed samples; 150 μL of the test compound and warfarin plasma sample was added to a drug delivery end of each dialysis well, and 150 μL of blank dialysis buffer was added to a corresponding receiving end of the dialysis well. The dialysis plate was then sealed with a gas permeable membrane and placed in a humid, 5% CO2 incubator and incubated at 37° C. for 4 h while shaking at about 100 rpm. After the dialysis was completed, 50 μL of the dialyzed buffer sample and dialyzed plasma sample were pipetted to a new sample receiving plate. A corresponding volume of corresponding blank plasma or buffer was added to the samples such that the final volume of each sample well was 100 μL, and the volume ratio of plasma to dialysis buffer was 1:1. All samples were subjected to LC/MS analysis after protein precipitation, and the protein binding rates and the recovery rates were calculated by the following formulas: protein unbinding rate (%)=100×drug concentration passing through dialysis membrane/drug concentration not passing through dialysate; protein binding rate (%)=100−protein unbinding rate (%); recovery rate (%)=100×(drug concentration passing through dialysis membrane+drug concentration not passing through dialysate)/total drug concentration before dialysis.
A general note: Equilibrium dialysis compares concentrations on both sides of a semipermeable membrane.

A short description of data set [2]: Metabolic stability in liver microsomes, human. The format is in vitro ADME. Conditions: Human liver microsomes 0.5 mg/mL, 1 μM compound, NADPH, 37° C. On the procedure:
(§1) Experimental Example 7. Metabolic Stability in Liver Microsomes
(§2) Experimental objective: to test the metabolic stability of test compounds in liver microsomes of three species.
(§3) Experimental method: 1 μM test compound and a microsome (0.5 mg/mL) were incubated at 37° C. in the presence of an NADPH regeneration system; positive controls were testosterone (3A4 substrate), propylamine propiophenone (2D6 substrate) and diclofenac (2C9 substrate), and also at 37° C., a positive control was incubated with a microsome (0.5 mg/mL) in the presence of an NADPH regenerating system; the reaction was stopped by direct mixing of the sample with cold acetonitrile containing an internal standard at various time points (0, 5, 10, 20, 30 and 60 min); the compound and microsome were incubated for 60 min in the absence of an NADPH regenerating system; one parallel (n=1) was set at each time point; the samples were analyzed by LC/MS/MS; the concentration of the compound was characterized by the ratio of the analyte peak area to the internal standard peak area.

Data set [3] in a line: Metabolic stability in liver microsomes, rat. The following applies: Rat liver microsomes 0.5 mg/mL, 1 μM compound, NADPH, 37° C. The class given is in vitro ADME. On the procedure: as §1, §2, §3
For orientation: Liver microsomes are vesicles of endoplasmic reticulum, rich in cytochrome P450 enzymes.

T1 sequence (P09874 whole entry): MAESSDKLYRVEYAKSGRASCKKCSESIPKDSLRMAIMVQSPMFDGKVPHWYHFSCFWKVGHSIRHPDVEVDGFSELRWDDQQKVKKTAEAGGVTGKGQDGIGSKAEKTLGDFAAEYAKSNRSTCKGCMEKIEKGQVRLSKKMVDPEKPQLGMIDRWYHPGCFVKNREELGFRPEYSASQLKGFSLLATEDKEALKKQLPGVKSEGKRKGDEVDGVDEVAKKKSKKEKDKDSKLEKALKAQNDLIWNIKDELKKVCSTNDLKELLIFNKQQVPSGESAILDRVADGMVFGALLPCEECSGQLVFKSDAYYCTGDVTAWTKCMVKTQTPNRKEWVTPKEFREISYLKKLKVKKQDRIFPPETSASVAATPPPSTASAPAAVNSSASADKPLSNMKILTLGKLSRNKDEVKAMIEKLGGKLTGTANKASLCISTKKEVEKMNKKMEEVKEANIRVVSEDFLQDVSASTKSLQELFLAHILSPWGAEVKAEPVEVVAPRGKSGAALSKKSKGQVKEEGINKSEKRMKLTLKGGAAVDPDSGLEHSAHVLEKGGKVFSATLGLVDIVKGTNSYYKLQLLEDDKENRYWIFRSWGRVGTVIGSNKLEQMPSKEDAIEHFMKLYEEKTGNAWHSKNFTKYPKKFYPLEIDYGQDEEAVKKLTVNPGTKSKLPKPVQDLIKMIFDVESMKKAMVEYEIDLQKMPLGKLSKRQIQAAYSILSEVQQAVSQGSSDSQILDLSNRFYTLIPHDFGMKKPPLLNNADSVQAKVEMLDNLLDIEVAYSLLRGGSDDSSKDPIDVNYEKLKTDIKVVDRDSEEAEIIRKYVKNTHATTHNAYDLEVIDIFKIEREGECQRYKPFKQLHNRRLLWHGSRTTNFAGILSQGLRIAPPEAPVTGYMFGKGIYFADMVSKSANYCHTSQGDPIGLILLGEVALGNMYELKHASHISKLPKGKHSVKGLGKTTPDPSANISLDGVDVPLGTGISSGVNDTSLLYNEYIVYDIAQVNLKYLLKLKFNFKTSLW

As to `CC1(c2ccc(-c3[nH]c4cc(F)cc5c4c3CONC5=O)cc2)CCCN1` (centres unmarked) [Example 25_A], the IC50 against PARP1 was 2.3 nM. Further, the fraction unbound at 4 h, 2 μM in data set [1] was 0.104. In addition, the results for the “Residual content after 60 min of incubation” value (“Residual content after 60 min” for short) in data set [2] and in data set [3] were 35.9% and 31.8%, respectively.
The corresponding values for `CC1(c2ccc(-c3[nH]c4cc(F)cc5c4c3CONC5=O)cc2F)CCCN1` (single isomer, unassigned) [Example 26_A] are 3.4 nM, 0.08, 29.6% and 34.5%.
On PARP1, `O=C1NOCc2c(-c3ccc(C4CCCN4)c(F)c3)[nH]c3cccc1c23` (centres unmarked) [Example 11_A] returned an IC50 of 3.6 nM. Moreover, the unbound share (fraction unbound) at 4 h, 2 μM in data set [1] was 0.101. Further, the “Residual content after 60 min” value is listed as 73.8% in data set [2] and 58.1% in data set [3].
In turn, `O=C1NOCc2c(-c3ccc(C4CCCN4)cc3)[nH]c3cc(F)cc1c23` (single isomer, unassigned) [Example 24_A] gave an IC50 against PARP1 of 2 nM. Also, the fraction unbound at 4 h, 2 μM in data set [1] is 0.037. The “Residual content after 60 min” value in data set [2] amounted to 60.4%; in data set [3] it was 60.6%.
For `CC1(c2ccc(-c3[nH]c4cccc5c4c3CONC5=O)cc2)CCCN1` (centres unmarked) [Example 6_A], the IC50 on PARP1 was 2.8 nM. Further, the fraction unbound at 4 h, 2 μM in data set [1] is 0.208. For the same compound, the figures for the “Residual content after 60 min” value in data set [2] and in data set [3] were 53.7% and 55.4%, respectively.

What is called IC50 is the point on the concentration scale where inhibition reaches its midpoint. Low readings indicate higher potency, high ones lower potency. The fraction unbound is the share of the substance not bound to proteins or other matrix.
